Measured values taken from patent US6569456B2, “Osmotic device containing diltiazem and an ACE inhibitor or diuretic” (priority 2000, dated 2003).

Assay: separate study of diltiazem half-life
Conditions: in vivo
From the text: The delayed release of the diltiazem causes a delay in the onset of diltiazem build-up in the plasma. Accordingly, onset of the side effects (adverse events) associated with diltiazem therapy have a delayed onset and a patient taking the medication before a rest period should not experience any difficulty in falling asleep.

half-life: ~510 min
SMILES: COc1ccc([C@@H]2Sc3ccccc3N(CCN(C)C)C(=O)[C@@H]2OC(C)=O)cc1 [diltiazem]
